Test results as given in patent publication US7402548B2, “Benzoxazole compounds, process for producing the same and herbicides” (Kyoyu Agri Co., Ltd., priority 2000, dated 2008).

Columns and labels:
Cassia obtusifolia = experiment: Foliar spread test for upland field; assay type: in vivo; design: key: 0 = normal development, 5 = all killed; conditions: foliar spray, 500 ppm, 3 weeks, glass house 25° C.
Protocol: (§1) The herbicidal effects are evaluated according to the following 6 ranks as compared with non-treated district. (0: normal development, 1: Less damaged, 2: Slightly damaged, 3: Moderately damaged, 4: Severely damaged, 5: All killed). Incidentally, “-” in the column means not investigated.
(§2) Wagner pots, each having an area of 1/5000 are, were packed with volcanic ash soil and then each seed of corn, soybean, cotton, wheat, solgum, sugar beat, Large crabgrass, barnyardgrjass, green foxtail, blackgrass, annual bluegrass, common lambsquarters, livid amaranth, velvetleaf, morning glory, Xanthium pensylvanicum and Cassia obtusifolia was planted, covered with soil and grown in a glass house at an average temperature of 25° C. for about 2 weeks.
(§3) Each wettable powder of the desired compounds (I) shown in Tables 1 to 21, 24, 25, 28 and 29 prepared in accordance with Example 2 was diluted to 500 ppm with water containing a surfactant (0.5%) and then uniformly sprayed on the above respective plants.
(§4) After these plants were controlled in a glass house at an average temperature of 25° C. for 3 weeks, the herbicidal effects thereof were investigated.
(§5) The herbicidal effects were evaluated according to the evaluation method described in the above (1).

Xanthium pensylvanicum = experiment: Foliar spread test for upland field; assay type: in vivo; design: key: 0 = normal development, 5 = all killed; conditions: foliar spray, 500 ppm, 3 weeks, glass house 25° C.
Protocol: as §1, §2, §3, §4, §5

barnyard grass [1] = experiment: Soil treatment test for upland field; assay type: in vivo, Eschinochloa crusgalli; design: key: 0 = normal development, 5 = all killed; conditions: 500 g/ha, 3 weeks, glass house 25° C.
In short: (§6)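 Pre-emergence soil spray, 500 g/ha, WP formulation in water + 0.05% surfactant; alluvial soil; glasshouse, avg 25° C, 3 wk. Score 0 (normal) to 5 (all killed) vs untreated.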

barnyardgrjass = experiment: Foliar spread test for upland field; assay type: in vivo, Eschinochloa crusgalli; design: key: 0 = normal development, 5 = all killed (6 ranks vs. untreated); conditions: foliar spray, 500 ppm, 3 weeks, glass house 25° C.
In short: (§7)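 Plants grown about 2 weeks at 25 °C in volcanic ash soil were sprayed with wettable powder diluted to 500 ppm in water with 0.5% surfactant. After 3 weeks at 25 °C, damage was scored 0 (normal) to 5 (all killed) against untreated plants.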

bulrush = experiment: Herbicidal test for paddy field; assay type: in vivo, Scrips juncoides; conditions: 500 g/ha, dropwise addition to paddy water at 1.5 leaf stage of barnyard grass; glass house 25° C., 3 weeks; rank 0-5 vs non-treated district
In short: (§8)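 Wettable-powder formulations in water with 0.05% surfactant were dripped onto flooded (3 cm) Ube alluvial-soil pots at 500 g/ha, applied at barnyard grass 1.5-leaf stage. Plants were kept in a glasshouse at 25° C. for 3 weeks. Damage was scored 0 (normal) to 5 (all killed) versus untreated plants.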

common lambsquarters [2] = experiment: Soil treatment test for upland field; assay type: in vivo, Chenopodium album; design: key: 0 = normal development, 5 = all killed; conditions: 500 g/ha, 3 weeks, glass house 25° C.
In short: as §6

solgum [3] = experiment: Soil treatment test for upland field; assay type: in vivo; design: key: 0 = normal development, 5 = all killed; conditions: 500 g/ha, 3 weeks, glass house 25° C.
In short: as §6

wheat [4] = experiment: Soil treatment test for upland field; assay type: in vivo; design: key: 0 = normal development, 5 = all killed; conditions: 500 g/ha, 3 weeks, glass house 25° C.
In short: as §6

sugar beat [5] = experiment: Soil treatment test for upland field; assay type: in vivo; design: key: 0 = normal development, 5 = all killed; conditions: 500 g/ha, 3 weeks, glass house 25° C.
In short: as §6

corn [6] = experiment: Soil treatment test for upland field; assay type: in vivo; design: key: 0 = normal development, 5 = all killed; conditions: 500 g/ha, 3 weeks, glass house 25° C.
In short: as §6

blackgrass [7] = experiment: Soil treatment test for upland field; assay type: in vivo, Alopecurus aegualis; design: key: 0 = normal development, 5 = all killed; conditions: 500 g/ha, 3 weeks, glass house 25° C.
In short: as §6

arrowhead = experiment: Herbicidal test for paddy field; assay type: in vivo, Sagittaria pygmaea; conditions: 500 g/ha, dropwise addition to paddy water at 1.5 leaf stage of barnyard grass; glass house 25° C., 3 weeks; rank 0-5 vs non-treated district
Protocol: Wagner pots, each having an area of 1/5000 are, were packed with Ube soil (alluvial soil) and planted with seeds or tubers of young rice plant, barnyard grass, bulrush, Cyperus serotinus Rottb., arrowhead and monochoria. Then, the pots were filled with water to a depth of 3 cm.
Each wettable powder of the desired Compounds (I) shown in Tables 1 to 21, 24, 25, 28 and 29 prepared in accordance with Example 2 was diluted with water containing a surfactant (0.05%) and subjected to dropwise addition treatment by using pipet so that an effective concentration of the compound (I) in each herbicide became 500 g/ha at 1.5 leaf stage of barnyard grass.
(§9) These plants were controlled in a glass house at an average temperature of 25° C. for 3 weeks, and then herbicidal effects thereof were investigated.
as §1

velvetleaf [8] = experiment: Foliar spread test for upland field; assay type: in vivo, Abutilon theophrasti; design: key: 0 = normal development, 5 = all killed (6 ranks vs. untreated); conditions: foliar spray, 500 ppm, 3 weeks, glass house 25° C.
In short: as §7

Large crabgrass [9] = experiment: Soil treatment test for upland field; assay type: in vivo, Digitaria adscendens; design: key: 0 = normal development, 5 = all killed; conditions: 500 g/ha, 3 weeks, glass house 25° C.
In short: as §6

green foxtail [10] = experiment: Soil treatment test for upland field; assay type: in vivo, Setaria viridis; design: key: 0 = normal development, 5 = all killed; conditions: 500 g/ha, 3 weeks, glass house 25° C.
In short: as §6

annual bluegrass [11] = experiment: Soil treatment test for upland field; assay type: in vivo, Poa annua; design: key: 0 = normal development, 5 = all killed; conditions: 500 g/ha, 3 weeks, glass house 25° C.
In short: as §6

barnyard grass [12] = experiment: Herbicidal test for paddy field; assay type: in vivo, Eschinochloa crusgalli; conditions: 500 g/ha, dropwise addition to paddy water at 1.5 leaf stage of barnyard grass; glass house 25° C., 3 weeks; rank 0-5 vs non-treated district
In short: as §8

morning glory [13] = experiment: Foliar spread test for upland field; assay type: in vivo, Ipomoea spps.; design: key: 0 = normal development, 5 = all killed (6 ranks vs. untreated); conditions: foliar spray, 500 ppm, 3 weeks, glass house 25° C.
In short: as §7

[14] = system: common Cocklebur (Xanthium strumarium); experiment: Soil treatment test for upland field; assay type: in vivo; conditions: 500 g/ha, 3 weeks, glass house 25° C.
Protocol: as §1
(§10) Wagner pots, each having an area of 1/5000 are, were packed with Ube soil (alluvial soil), and then each seed of corn, soybean, cotton, wheat, solgum, sugar beat, Large crabgrass, barnyard grass, green foxtail, blackgrass, annual bluegrass, common lambsquarters, livid amaranth, velvetleaf, morning glory, common Cocklebur (Xanthium strumarium) and sicklepod (Cassia obtusifolia) were planted and covered with soil.
(§11) Each wettable powder of the desired compounds (I) shown in Tables 1 to 21, 24, 25, 28 and 29 prepared in accordance with Example 2 was diluted with water containing a surfactant (0.05%) and uniformly sprayed on the surface of each soil so that an effective concentration of the compound (I) in each herbicide became 500 g/ha.
as §9, §5

[15] = system: sicklepod (Cassia obtusifolia); experiment: Soil treatment test for upland field; assay type: in vivo; conditions: 500 g/ha, 3 weeks, glass house 25° C.
Protocol: as §1, §10, §11, §9, §5

Large crabgrass [16] = experiment: Foliar spread test for upland field; assay type: in vivo, Digitaria adscendens; design: key: 0 = normal development, 5 = all killed (6 ranks vs. untreated); conditions: foliar spray, 500 ppm, 3 weeks, glass house 25° C.
In short: as §7

livid amaranth [17] = experiment: Soil treatment test for upland field; assay type: in vivo, Amaranthus lividus; design: key: 0 = normal development, 5 = all killed; conditions: 500 g/ha, 3 weeks, glass house 25° C.
In short: as §6

velvetleaf [18] = experiment: Soil treatment test for upland field; assay type: in vivo, Abutilon theophrasti; design: key: 0 = normal development, 5 = all killed; conditions: 500 g/ha, 3 weeks, glass house 25° C.
In short: as §6

green foxtail [19] = experiment: Foliar spread test for upland field; assay type: in vivo, Setaria viridis; design: key: 0 = normal development, 5 = all killed (6 ranks vs. untreated); conditions: foliar spray, 500 ppm, 3 weeks, glass house 25° C.
In short: as §7

annual bluegrass [20] = experiment: Foliar spread test for upland field; assay type: in vivo, Poa annua; design: key: 0 = normal development, 5 = all killed (6 ranks vs. untreated); conditions: foliar spray, 500 ppm, 3 weeks, glass house 25° C.
In short: as §7

livid amaranth [21] = experiment: Foliar spread test for upland field; assay type: in vivo, Amaranthus lividus; design: key: 0 = normal development, 5 = all killed (6 ranks vs. untreated); conditions: foliar spray, 500 ppm, 3 weeks, glass house 25° C.
In short: as §7

morning glory [22] = experiment: Soil treatment test for upland field; assay type: in vivo, Ipomoea spps.; design: key: 0 = normal development, 5 = all killed; conditions: 500 g/ha, 3 weeks, glass house 25° C.
In short: as §6

common lambsquarters [23] = experiment: Foliar spread test for upland field; assay type: in vivo, Chenopodium album; design: key: 0 = normal development, 5 = all killed (6 ranks vs. untreated); conditions: foliar spray, 500 ppm, 3 weeks, glass house 25° C.
In short: as §7

solgum [24] = experiment: Foliar spread test for upland field; assay type: in vivo; design: key: 0 = normal development, 5 = all killed (6 ranks vs. untreated); conditions: foliar spray, 500 ppm, 3 weeks, glass house 25° C.
In short: as §7

wheat [25] = experiment: Foliar spread test for upland field; assay type: in vivo; design: key: 0 = normal development, 5 = all killed (6 ranks vs. untreated); conditions: foliar spray, 500 ppm, 3 weeks, glass house 25° C.
In short: as §7

cotton = experiment: Foliar spread test for upland field; assay type: in vivo; design: key: 0 = normal development, 5 = all killed (6 ranks vs. untreated); conditions: foliar spray, 500 ppm, 3 weeks, glass house 25° C.
In short: as §7

sugar beat [26] = experiment: Foliar spread test for upland field; assay type: in vivo; design: key: 0 = normal development, 5 = all killed (6 ranks vs. untreated); conditions: foliar spray, 500 ppm, 3 weeks, glass house 25° C.
In short: as §7

soybean = experiment: Foliar spread test for upland field; assay type: in vivo; design: key: 0 = normal development, 5 = all killed (6 ranks vs. untreated); conditions: foliar spray, 500 ppm, 3 weeks, glass house 25° C.
In short: as §7

corn [27] = experiment: Foliar spread test for upland field; assay type: in vivo; design: key: 0 = normal development, 5 = all killed (6 ranks vs. untreated); conditions: foliar spray, 500 ppm, 3 weeks, glass house 25° C.
In short: as §7

blackgrass [28] = experiment: Foliar spread test for upland field; assay type: in vivo, Alopecurus aegualis; design: key: 0 = normal development, 5 = all killed (6 ranks vs. untreated); conditions: foliar spray, 500 ppm, 3 weeks, glass house 25° C.
In short: as §7

Fc1ccc2oc(-c3cccc(Oc4cccc(C(F)(F)F)c4)n3)nc2c1 [I-a-2]
Effects Sicklepod (Cassia obtusifolia): 4 | Effects Common Cocklebur (Xanthium pensylvanicum): 4 | Effects Barnyardgrass (barnyard grass [1]): 4 | Effects Barnyardgrass (barnyardgrjass): 3 | Effects Bulrush (bulrush): 3 | Effects Common lambsquarters (common lambsquarters [2]): 5 | Effects Solgum (solgum [3]): 1 | Effects Wheat (wheat [4]): 1 | Effects Sugar beat (sugar beat [5]): 5 | Effects Corn (corn [6]): 2 | Effects Blackgrass (blackgrass [7]): 5 | Effects Arrowhead (arrowhead): 1 | Effects Velvetleaf (velvetleaf [8]): 4 | Effects Large crabgrass (Large crabgrass [9]): 5 | Effects Green foxtail (green foxtail [10]): 5 | Effects Annual bluegrass (annual bluegrass [11]): 5 | Effects Barnyardgrass (barnyard grass [12]): 4 | Effects Morning glory (morning glory [13]): 5 | Effects Common Cocklebur [14]: 3 | Effects Sicklepod [15]: 3 | Effects Large crabgrass (Large crabgrass [16]): 4 | Effects Livid amaranth (livid amaranth [17]): 5 | Effects Velvetleaf (velvetleaf [18]): 5 | Effects Green foxtail (green foxtail [19]): 5 | Effects Annual bluegrass (annual bluegrass [20]): 4 | Effects Livid amaranth (livid amaranth [21]): 5 | Effects Morning glory (morning glory [22]): 5 | Effects Common lambsquarters (common lambsquarters [23]): 5 | Effects Solgum (solgum [24]): 2 | Effects Wheat (wheat [25]): 2 | Effects Sotton (cotton): 4 | Effects Sugar beat (sugar beat [26]): 4 | Effects Soybean (soybean): 3 | Effects Corn (corn [27]): 2 | Effects Blackgrass (blackgrass [28]): 3
